Measurements as given in patent publication US20210252151A1, “METHOD FOR OPTICAL OPENING OF THE BLOOD-BRAIN BARRIER” (BOARD OF REGENTS, THE UNIVERSITY OF TEXAS SYSTEM, priority 2018, published 2021).

System: BBB of C57BL/6 mice
Test: Delivery of functional molecules to the brain after BBB transient opening
Assay type: in vivo, mouse
Details: after TJ-targeting AuNP and ps laser (25 mJ/cm^2, 1 pulse)
Procedure: To measure the penetration of functional molecule, the anti-cancer drug, doxorubicin, and antibody (human IgG) instead of Evans blue dye were inject intravenously. To test endogenous mouse IgG extravasation, the secondary antibody was incubated with mouse brain tissue sections, followed by fluorescent signal detection.

COc1cccc2c1C(=O)c1c(O)c3c(c(O)c1C2=O)C[C@@](O)(C(=O)CO)C[C@@H]3O[C@H]1C[C@H](N)[C@H](O)[C@H](C)O1 [Dox, doxorubicin]
crossing of the BBB (extravasation into brain): obvious Dox across the BBB
